± gives the standard deviation of the averaged measurements.
Columns and labels:
Assay in all cases: relative viability vs DMSO control (72 h) (fraction); higher = more viable cells
G401 = test system: G401
Procedure, shortened: (§1)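 Sarcoma cell lines were seeded in 384-well plates at densities chosen for 80–90% confluence, then 24 h later given 2.5 µl of serially diluted compound drawn from source plates spanning 10 mM to 0.0002 mM. They were held 72 h at 37 °C, 5% CO2, with 0.1% DMSO vehicle and a 5 µM positive control included. Relative viability was read with ATPLite as percent growth and averaged over up to triplicate wells. Rescaling placed full at 1 and none at 0.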

A204 = test system: A204
Procedure, shortened: as §1

SYO-1 = test system: SYO-1
Procedure, shortened: as §1

SW872 = test system: SW872
Procedure, shortened: as §1

KHOS-NP = test system: KHOS-NP
Procedure, shortened: as §1

MES-SA = test system: MES-SA
Procedure, shortened: as §1

HT1080 = test system: HT1080
Procedure, shortened: as §1

SK-LMS-1 = test system: SK-LMS-1
Procedure, shortened: as §1

HS729 = test system: HS729
Procedure, shortened: as §1

SW684 = test system: SW684
Procedure, shortened: as §1

SW1353 = test system: SW1353
Procedure, shortened: as §1

VA-ES-BJ = test system: VA-ES-BJ
Procedure, shortened: as §1

COc1cc(Nc2ncc3c(n2)-c2ccc(Cl)cc2C(c2c(F)cccc2OC)=NC3)ccc1C(=O)O [Alisertib]
relative viability (G401; 0.00017 µM): 1.01 ± 0.057
relative viability (G401; 0.00051 µM): 0.979 ± 0.03
relative viability (G401; 0.00152 µM): 0.984 ± 0.024
relative viability (G401; 0.00457 µM): 0.966 ± 0.061
relative viability (G401; 0.01372 µM): 0.892 ± 0.014
relative viability (G401; 0.04115 µM): 0.845 ± 0.04
relative viability (G401; 0.1235 µM): 0.756 ± 0.024
relative viability (G401; 0.3704 µM): 0.706 ± 0.054
relative viability (G401; 1.111 µM): 0.705 ± 0.033
relative viability (G401; 3.333 µM): 0.637 ± 0.031
relative viability (G401; 10 µM): 0.563 ± 0.016
relative viability (A204; 0.00017 µM): 1.07 ± 0.042
relative viability (A204; 0.00051 µM): 1.073 ± 0.009
relative viability (A204; 0.00152 µM): 1.07 ± 0.022
relative viability (A204; 0.00457 µM): 1.03 ± 0.014
relative viability (A204; 0.01372 µM): 1.07 ± 0.035
relative viability (A204; 0.04115 µM): 1.06 ± 0.036
relative viability (A204; 0.1235 µM): 0.882 ± 0.12
relative viability (A204; 0.3704 µM): 0.796 ± 0.037
relative viability (A204; 1.111 µM): 0.768 ± 0.065
relative viability (A204; 3.333 µM): 0.7276 ± 0.0066
relative viability (A204; 10 µM): 0.711 ± 0.045
relative viability (SYO-1; 0.00017 µM): 0.934 ± 0.017
relative viability (SYO-1; 0.00051 µM): 0.9195 ± 0.0088
relative viability (SYO-1; 0.00152 µM): 0.903 ± 0.017
relative viability (SYO-1; 0.00457 µM): 0.863 ± 0.053
relative viability (SYO-1; 0.01372 µM): 0.826 ± 0.067
relative viability (SYO-1; 0.04115 µM): 0.783 ± 0.038
relative viability (SYO-1; 0.1235 µM): 0.618 ± 0.034
relative viability (SYO-1; 0.3704 µM): 0.459 ± 0.026
relative viability (SYO-1; 1.111 µM): 0.371 ± 0.02
relative viability (SYO-1; 3.333 µM): 0.355 ± 0.03
relative viability (SYO-1; 10 µM): 0.3041 ± 0.0013
relative viability (SW872; 0.00017 µM): 1.02 ± 0.048
relative viability (SW872; 0.00051 µM): 0.974 ± 0.054
relative viability (SW872; 0.00152 µM): 0.989 ± 0.031
relative viability (SW872; 0.00457 µM): 1.03 ± 0.02
relative viability (SW872; 0.01372 µM): 1.01 ± 0.014
relative viability (SW872; 0.04115 µM): 1.01 ± 0.022
relative viability (SW872; 0.1235 µM): 0.959 ± 0.029
relative viability (SW872; 0.3704 µM): 0.731 ± 0.017
relative viability (SW872; 1.111 µM): 0.759 ± 0.014
relative viability (SW872; 3.333 µM): 0.738 ± 0.029
relative viability (SW872; 10 µM): 0.661 ± 0.013
relative viability (KHOS-NP; 0.00017 µM): 1.08 ± 0.019
relative viability (KHOS-NP; 0.00051 µM): 1.1 ± 0.021
relative viability (KHOS-NP; 0.00152 µM): 1.09 ± 0.021
relative viability (KHOS-NP; 0.00457 µM): 1.08 ± 0.019
relative viability (KHOS-NP; 0.01372 µM): 1.09 ± 0.013
relative viability (KHOS-NP; 0.04115 µM): 1.07 ± 0.014
relative viability (KHOS-NP; 0.1235 µM): 1.06 ± 0.018
relative viability (KHOS-NP; 0.3704 µM): 1.05 ± 0.053
relative viability (KHOS-NP; 1.111 µM): 0.951 ± 0.051
relative viability (KHOS-NP; 3.333 µM): 0.925 ± 0.034
relative viability (KHOS-NP; 10 µM): 0.672 ± 0.012
relative viability (MES-SA; 0.00017 µM): 0.914 ± 0.021
relative viability (MES-SA; 0.00051 µM): 0.932 ± 0.031
relative viability (MES-SA; 0.00152 µM): 0.9332 ± 0.0036
relative viability (MES-SA; 0.00457 µM): 0.933 ± 0.032
relative viability (MES-SA; 0.01372 µM): 0.9174 ± 0.0058
relative viability (MES-SA; 0.04115 µM): 0.621 ± 0.018
relative viability (MES-SA; 0.1235 µM): 0.363 ± 0.005
relative viability (MES-SA; 0.3704 µM): 0.353 ± 0.0075
relative viability (MES-SA; 1.111 µM): 0.328 ± 0.014
relative viability (MES-SA; 3.333 µM): 0.325 ± 0.014
relative viability (MES-SA; 10 µM): 0.316 ± 0.011
relative viability (HT1080; 0.00017 µM): 1.11 ± 0.034
relative viability (HT1080; 0.00051 µM): 1.07 ± 0.028
relative viability (HT1080; 0.00152 µM): 1.08 ± 0.018
relative viability (HT1080; 0.00457 µM): 1.06 ± 0.046
relative viability (HT1080; 0.01372 µM): 1.07 ± 0.03
relative viability (HT1080; 0.04115 µM): 0.994 ± 0.039
relative viability (HT1080; 0.1235 µM): 0.974 ± 0.032
relative viability (HT1080; 0.3704 µM): 0.876 ± 0.026
relative viability (HT1080; 1.111 µM): 0.766 ± 0.037
relative viability (HT1080; 3.333 µM): 0.715 ± 0.019
relative viability (HT1080; 10 µM): 0.668 ± 0.022
relative viability (SK-LMS-1; 0.00017 µM): 1.03 ± 0.066
relative viability (SK-LMS-1; 0.00051 µM): 1.02 ± 0.042
relative viability (SK-LMS-1; 0.00152 µM): 1.01 ± 0.014
relative viability (SK-LMS-1; 0.00457 µM): 1.02 ± 0.031
relative viability (SK-LMS-1; 0.01372 µM): 1 ± 0.082
relative viability (SK-LMS-1; 0.04115 µM): 0.806 ± 0.036
relative viability (SK-LMS-1; 0.1235 µM): 0.772 ± 0.013
relative viability (SK-LMS-1; 0.3704 µM): 0.78 ± 0.016
relative viability (SK-LMS-1; 1.111 µM): 0.803 ± 0.039
relative viability (SK-LMS-1; 3.333 µM): 0.815 ± 0.019
relative viability (SK-LMS-1; 10 µM): 0.678 ± 0.012
relative viability (HS729; 0.00017 µM): 0.938 ± 0.02
relative viability (HS729; 0.00051 µM): 0.943 ± 0.021
relative viability (HS729; 0.00152 µM): 0.932 ± 0.025
relative viability (HS729; 0.00457 µM): 0.888 ± 0.045
relative viability (HS729; 0.01372 µM): 0.859 ± 0.037
relative viability (HS729; 0.04115 µM): 0.879 ± 0.078
relative viability (HS729; 0.1235 µM): 0.793 ± 0.092
relative viability (HS729; 0.3704 µM): 0.77 ± 0.052
relative viability (HS729; 1.111 µM): 0.733 ± 0.057
relative viability (HS729; 3.333 µM): 0.689 ± 0.04
relative viability (HS729; 10 µM): 0.716 ± 0.071
relative viability (SW684; 0.00017 µM): 1.16 ± 0.033
relative viability (SW684; 0.00051 µM): 1.17 ± 0.055
relative viability (SW684; 0.00152 µM): 1.18 ± 0.02
relative viability (SW684; 0.00457 µM): 1.15 ± 0.025
relative viability (SW684; 0.01372 µM): 1.1 ± 0.054
relative viability (SW684; 0.04115 µM): 1.09 ± 0.04
relative viability (SW684; 0.1235 µM): 1.01 ± 0.052
relative viability (SW684; 0.3704 µM): 1.01 ± 0.0077
relative viability (SW684; 1.111 µM): 0.983 ± 0.045
relative viability (SW684; 3.333 µM): 0.919 ± 0.094
relative viability (SW684; 10 µM): 0.869 ± 0.054
relative viability (SW1353; 0.00017 µM): 0.987 ± 0.036
relative viability (SW1353; 0.00051 µM): 0.972 ± 0.029
relative viability (SW1353; 0.00152 µM): 0.969 ± 0.024
relative viability (SW1353; 0.00457 µM): 0.961 ± 0.056
relative viability (SW1353; 0.01372 µM): 0.976 ± 0.021
relative viability (SW1353; 0.04115 µM): 0.921 ± 0.039
relative viability (SW1353; 0.1235 µM): 0.886 ± 0.062
relative viability (SW1353; 0.3704 µM): 0.908 ± 0.048
relative viability (SW1353; 1.111 µM): 0.85 ± 0.031
relative viability (SW1353; 3.333 µM): 0.817 ± 0.033
relative viability (SW1353; 10 µM): 0.685 ± 0.025
relative viability (VA-ES-BJ; 0.00017 µM): 0.995 ± 0.029
relative viability (VA-ES-BJ; 0.00051 µM): 0.997 ± 0.029
relative viability (VA-ES-BJ; 0.00152 µM): 0.984 ± 0.052
relative viability (VA-ES-BJ; 0.00457 µM): 0.992 ± 0.019
relative viability (VA-ES-BJ; 0.01372 µM): 0.969 ± 0.042
relative viability (VA-ES-BJ; 0.04115 µM): 0.919 ± 0.015
relative viability (VA-ES-BJ; 0.1235 µM): 0.747 ± 0.0085
relative viability (VA-ES-BJ; 0.3704 µM): 0.604 ± 0.063
relative viability (VA-ES-BJ; 1.111 µM): 0.571 ± 0.03
relative viability (VA-ES-BJ; 3.333 µM): 0.523 ± 0.027
relative viability (VA-ES-BJ; 10 µM): 0.505 ± 0.03
